Data published in patent US6365591B1, “Isoxazolecarboxamide derivatives” (Recordati, S.A., Chemical and Pharmacueticals Company, priority 1999, dated 2002).
Like-named read-outs stand apart in the source and are kept apart here.

Legend:
[1] = system: prostatic urethral pressure (noradrenaline-induced); conditions: cited from earlier work
α1L adrenoceptor = biological target: T1, α1L adrenoceptor (Oryctolagus cuniculus, UniProt O02824); experiment: Functional antagonism of noradrenaline-induced contractions of rabbit aorta pretreated with chloroethylclonidine; type: biochemical
T1 sequence (O02824 1-466): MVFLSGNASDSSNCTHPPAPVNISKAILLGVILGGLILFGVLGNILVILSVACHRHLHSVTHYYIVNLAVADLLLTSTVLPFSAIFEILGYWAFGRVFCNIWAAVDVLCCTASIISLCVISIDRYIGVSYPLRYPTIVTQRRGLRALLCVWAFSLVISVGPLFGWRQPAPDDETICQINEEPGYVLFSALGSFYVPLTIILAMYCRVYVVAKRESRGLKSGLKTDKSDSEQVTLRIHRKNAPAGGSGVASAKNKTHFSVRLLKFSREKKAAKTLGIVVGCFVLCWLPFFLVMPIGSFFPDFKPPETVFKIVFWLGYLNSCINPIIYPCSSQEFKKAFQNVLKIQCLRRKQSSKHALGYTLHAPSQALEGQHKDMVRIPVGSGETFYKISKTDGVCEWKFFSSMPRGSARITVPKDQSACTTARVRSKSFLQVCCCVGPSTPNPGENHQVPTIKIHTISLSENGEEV
Description: Adult male New Zealand rabbits were sacrificed by cervical dislocation. The aorta was removed, placed in Krebs-Henseleit buffer and dissected free of adhering tissue. […] Desmethylimipramine (0.1 μM) and corticosterone (1 μM) to block neuronal and extraneuronal uptake of NA, (±)-propranol (1 μM) to block β adrenoceptors and yohimbine (0.1 μM) to block α2 adrenoceptors were added to the buffer.
Each antagonist concentration was tested using 2-3 aortic rings from different rabbits.
The logarithm of these dose ratio −1 was plotted against the logarithm of the compound concentrations (Schild plot) to evaluate the affinity constant Kb.

diastolic blood pressure = conditions: cited from earlier work; for DBP ED25: dose inducing a 25% decrease in diastolic blood pressure: anaesthetised dogs, i.v., data from Leonardi et al. 1997
[2] = system: prostatic urethral pressure (hypogastric-nerve stimulation); conditions: anaesthetised dogs, i.v.; data from Leonardi et al. 1997; cited from earlier work
[3] = system: recombinant α1a-adrenoceptor; conditions: literature statement (Leonardi et al. 1997); cited from earlier work
[4] = dog model, literature (Leonardi et al. 1997)

Functional affinity for the α1L adrenoceptor subtype, pKb (α1L adrenoceptor): 8.91
Compound: COc1ccccc1N1CCN(CCCNC(=O)c2cccc3c(=O)c(C)c(-c4ccccc4)oc23)CC1 [Compound A]
UP ID50 NA: dose inhibiting by 50% the urethral contractions induced by noradrenaline ([1]; anaesthetised dogs, i.v., data from Leonardi et al. 1997): 2.4 µg/kg | inhibition of contractility of the prostatic urethra [1, 4]: selectively inhibit contractility of the prostatic urethra | DBP ED25: dose inducing a 25% decrease in diastolic blood pressure (diastolic blood pressure; first of two DBP values (the one that gives R1, NA)): 243 µg/kg | DBP ED25: dose inducing a 25% decrease in diastolic blood pressure (diastolic blood pressure; second of two DBP values (the one that gives R2, HYP)): 177 µg/kg | effects on blood pressure (diastolic blood pressure; [4]): without substantial effects on blood pressure | UP ID50 HYP: dose inhibiting by 50% the urethral contractions induced by hypogastric-nerve stimulation [2]: 6.7 µg/kg | affinity for the α1A adrenoceptor [3]: good affinity
